Test results published in ChEMBL document CHEMBL1201862, “PubChem BioAssay data set” (2004).
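Cells were grown in 96-well plates and exposed to each compound for 48 hours at five concentrations; endpoints were interpolated linearly between bracketing concentrations, or set to the highest concentration if not reached. GI50 is the concentration that inhibits growth by half.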 Active and inactive are the calls of the source. No stated cut-off is given here; in the data, active = GI50 up to about 1.1 µM and inactive = higher.

Columns and labels:
Test in all cases: NCI tumour cell line growth inhibition, 48 h
[1] = test system: OVCAR-8
[2] = test system: A498
[3] = test system: PC-3
[4] = test system: SNB-75
[5] = test system: SR
[6] = test system: LOX IMVI
[7] = test system: UO-31
[8] = test system: HCC 2998
[9] = test system: MDA-MB-435
[10] = test system: Malme-3M
[11] = test system: A549
[12] = test system: CCRF-CEM
[13] = test system: SW-620
[14] = test system: T47D
[15] = test system: OVCAR-4
[16] = test system: NCI-H23
[17] = test system: COLO 205
[18] = test system: DU-145
[19] = test system: SK-MEL-2
[20] = test system: SN12C
[21] = test system: 786-0
[22] = test system: NCI-H522
[23] = test system: KM12
[24] = test system: MDA-MB-231
[25] = test system: SK-OV-3
[26] = test system: SNB-19
[27] = test system: NCI/ADR-RES
[28] = test system: Hs-578T
[29] = test system: SF-539
[30] = test system: HL-60
[31] = test system: UACC-257
[32] = test system: NCI-H460
[33] = test system: SK-MEL-5
[34] = test system: RXF 393
[35] = test system: SK-MEL-28
[36] = test system: EKVX
[37] = test system: U-251
[38] = test system: HCT-116
[39] = test system: SF-268
[40] = test system: MCF7
[41] = test system: K562
[42] = test system: MDA-N
[43] = test system: TK-10
[44] = test system: CAKI-1
[45] = test system: RPMI-8226
[46] = test system: BT-549
[47] = test system: UACC-62
[48] = test system: NCI-H226
[49] = test system: HT-29
[50] = test system: HCT-15
[51] = test system: MOLT-4
[52] = test system: OVCAR-3
[53] = test system: ACHN
[54] = test system: M14
[55] = test system: IGROV-1
[56] = test system: OVCAR-5
[57] = test system: SF-295

In the case of CSC1=C(C(=O)Nc2ccccc2)C(N)=NC1=O, the GI50 [1] is reported as > 100 µM (inactive), the GI50 [2] is reported as 56.2 µM (inactive) and the GI50 [3] is reported as > 100 µM (inactive). The GI50 [4] was > 100 µM (inactive), the GI50 [5] was 32.4 µM (inactive) and the GI50 [6] was > 100 µM (inactive). For the same compound, the GI50 [7] was 17.1 µM (inactive), the GI50 [8] was > 100 µM (inactive) and the GI50 [9] was > 100 µM (inactive). For the same compound, the GI50 [10] was > 100 µM (inactive), the GI50 [11] was > 100 µM (inactive) and the GI50 [12] was > 100 µM (inactive). The GI50 [13] was > 100 µM (inactive), the GI50 [14] was 92.7 µM (inactive) and the GI50 [15] was > 100 µM (inactive). The GI50 [16] was > 100 µM (inactive), the GI50 [17] was > 100 µM (inactive) and the GI50 [18] was > 100 µM (inactive). For the same compound, the GI50 [19] was > 100 µM (inactive), the GI50 [20] was > 100 µM (inactive) and the GI50 [21] was > 100 µM (inactive). The GI50 [22] was 11.3 µM (inactive), the GI50 [23] was > 100 µM (inactive) and the GI50 [24] was > 100 µM (inactive). For the same compound, the GI50 [25] was > 100 µM (inactive), the GI50 [26] was > 100 µM (inactive) and the GI50 [27] was > 100 µM (inactive). For the same compound, the GI50 [28] was > 100 µM (inactive), the GI50 [29] was > 100 µM (inactive) and the GI50 [30] was > 100 µM (inactive). The GI50 [31] was > 100 µM (inactive), the GI50 [32] was > 100 µM (inactive) and the GI50 [33] was > 100 µM (inactive). The GI50 [34] was 79.3 µM (inactive), the GI50 [35] was > 100 µM (inactive) and the GI50 [36] was 77.1 µM (inactive). For the same compound, the GI50 [37] was > 100 µM (inactive), the GI50 [38] was > 100 µM (inactive) and the GI50 [39] was > 100 µM (inactive). For the same compound, the GI50 [40] was 89.7 µM (inactive), the GI50 [41] was > 100 µM (inactive) and the GI50 [42] was > 100 µM (inactive). The GI50 [43] was > 100 µM (inactive), the GI50 [44] was 27.5 µM (inactive) and the GI50 [45] was > 100 µM (inactive). The GI50 [46] was > 100 µM (inactive), the GI50 [47] was 62.8 µM (inactive) and the GI50 [48] was > 100 µM (inactive). For the same compound, the GI50 [49] was > 100 µM (inactive), the GI50 [50] was > 100 µM and the GI50 [51] was > 100 µM (inactive).

With Cc1c(F)c(N)c2c(=O)cc(-c3ccc(NC(=O)CN(C)C)c(F)c3)oc2c1F the GI50 [1] was 38.5 µM (inactive), the GI50 [2] was 10 µM (inactive) and the GI50 [3] was 38.3 µM (inactive). The GI50 [5] was 17.6 µM (inactive), the GI50 [6] was 33 µM (inactive) and the GI50 [7] was 86.1 µM (inactive). For the same compound, the GI50 [52] was 0.0456 µM (active), the GI50 [8] was 21.5 µM (inactive) and the GI50 [9] was 48.2 µM (inactive). For the same compound, the GI50 [10] was > 100 µM (inactive), the GI50 [53] was > 100 µM (inactive) and the GI50 [11] was 89.7 µM (inactive). The GI50 [12] was 21 µM (inactive), the GI50 [13] was 18.3 µM (inactive) and the GI50 [14] was > 100 µM (inactive). For the same compound, the GI50 [15] was 23.6 µM (inactive), the GI50 [16] was > 100 µM (inactive) and the GI50 [17] was 36.6 µM (inactive). The GI50 [54] was > 100 µM (inactive), the GI50 [18] was 82.8 µM (inactive) and the GI50 [19] was 60.7 µM (inactive). The GI50 [20] was > 100 µM (inactive), the GI50 [21] was 39.5 µM (inactive) and the GI50 [22] was 55.1 µM (inactive). The GI50 [23] was 32 µM (inactive), the GI50 [24] was 27.8 µM (inactive) and the GI50 [25] was > 100 µM (inactive). For the same compound, the GI50 [26] was 54.1 µM (inactive), the GI50 [55] was 38 µM (inactive) and the GI50 [27] was 68.7 µM (inactive). For the same compound, the GI50 [28] was > 100 µM (inactive), the GI50 [29] was > 100 µM (inactive) and the GI50 [30] was 18.4 µM (inactive). For the same compound, the GI50 [31] was > 100 µM (inactive), the GI50 [32] was 24.2 µM (inactive) and the GI50 [33] was 53.5 µM (inactive). For the same compound, the GI50 [34] was > 100 µM (inactive), the GI50 [35] was 47.9 µM (inactive) and the GI50 [37] was 24.8 µM (inactive). For the same compound, the GI50 [38] was > 100 µM (inactive), the GI50 [39] was 28.4 µM (inactive) and the GI50 [40] was 7.29 µM (inactive). For the same compound, the GI50 [41] was 26.7 µM (inactive), the GI50 [42] was > 100 µM (inactive) and the GI50 [43] was 18.5 µM (inactive). For the same compound, the GI50 [44] was 2.45 µM (inactive), the GI50 [45] was 23.7 µM (inactive) and the GI50 [46] was > 100 µM (inactive). For the same compound, the GI50 [47] was 26.4 µM (inactive), the GI50 [48] was 11 µM (inactive) and the GI50 [49] was 33.6 µM (inactive). For the same compound, the GI50 [56] was 57 µM (inactive), the GI50 [50] was 61.8 µM and the GI50 [51] was 15.5 µM (inactive). For the same compound, the GI50 [57] was 68.1 µM (inactive).
